# Tests used:
# Assay in all cases: KINOMEscan competition binding
# Conditions in all cases: compound 1.0 µM
# [1] = target: ICK (human) (UniProt Q9UPZ9)
# [2] = test system: ABL1 (human), P00519 [T315I]
# [3] = target: SGK110 (human) (UniProt P0C264)
# [4] = target: AKT1 (human) (UniProt P31749)
# [5] = target: MAP2K4 (human) (UniProt P45985)
# [6] = target: PHKG1 (human) (UniProt Q16816)
# [7] = target: PKN1 (human) (UniProt Q16512)
# [8] = target: LATS2 (human) (UniProt Q9NRM7)
# [9] = target: LIMK2 (human) (UniProt P53671)
# [10] = target: CSK (human) (UniProt P41240)
# [11] = test system: EGFR (human), P00533 [A750P; 747-749 del]
# [12] = target: STK4 (human) (UniProt Q13043)
# [13] = target: CHEK2 (human) (UniProt O96017)
# [14] = target: PIP4K2B (human) (UniProt P78356)
# [15] = test system: EGFR (human), P00533 [L858R]
# [16] = target: RPS6KA5 KD2 (human) (UniProt O75582)
# [17] = target: RET (human) (UniProt P07949)
# [18] = target: BMPR2 (human) (UniProt Q13873)
# [19] = target: RPS6KA1 KD1 (human) (UniProt Q15418)
# [20] = target: STK10 (human) (UniProt O94804)
# [21] = target: CDC42BPB (human) (UniProt Q9Y5S2)
# [22] = target: MAPK4 (human) (UniProt P31152)
# [23] = target: LCK (human) (UniProt P06239)
# [24] = target: MAPK12 (human) (UniProt P53778)
# [25] = target: FGFR1 (human) (UniProt P11362)
# [26] = target: BMPR1A (human) (UniProt P36894)
# [27] = target: MAP4K1 (human) (UniProt Q92918)
# [28] = target: MAP3K4 (human) (UniProt Q9Y6R4)
# [29] = target: TAOK3 (human) (UniProt Q9H2K8)
# [30] = target: ACVR2A (human) (UniProt P27037)
# [31] = target: PRKACA (human) (UniProt P17612)
# [32] = target: CDC42BPA (human) (UniProt Q5VT25)
# [33] = target: CDK16 (human) (UniProt Q00536)
# [34] = target: ULK2 (human) (UniProt Q8IYT8)
# [35] = target: PAK1 (human) (UniProt Q13153)
# [36] = target: PIP5K1A (human) (UniProt Q99755)
# [37] = target: PTK2B (human) (UniProt Q14289)
# [38] = target: DAPK2 (human) (UniProt Q9UIK4)
# [39] = test system: EGFR (human), P00533 [746-750 del]
# [40] = target: MINK1 (human) (UniProt Q8N4C8)
# Sequence of RPS6KA5 KD2 (human) (O75582 whole entry, looked up): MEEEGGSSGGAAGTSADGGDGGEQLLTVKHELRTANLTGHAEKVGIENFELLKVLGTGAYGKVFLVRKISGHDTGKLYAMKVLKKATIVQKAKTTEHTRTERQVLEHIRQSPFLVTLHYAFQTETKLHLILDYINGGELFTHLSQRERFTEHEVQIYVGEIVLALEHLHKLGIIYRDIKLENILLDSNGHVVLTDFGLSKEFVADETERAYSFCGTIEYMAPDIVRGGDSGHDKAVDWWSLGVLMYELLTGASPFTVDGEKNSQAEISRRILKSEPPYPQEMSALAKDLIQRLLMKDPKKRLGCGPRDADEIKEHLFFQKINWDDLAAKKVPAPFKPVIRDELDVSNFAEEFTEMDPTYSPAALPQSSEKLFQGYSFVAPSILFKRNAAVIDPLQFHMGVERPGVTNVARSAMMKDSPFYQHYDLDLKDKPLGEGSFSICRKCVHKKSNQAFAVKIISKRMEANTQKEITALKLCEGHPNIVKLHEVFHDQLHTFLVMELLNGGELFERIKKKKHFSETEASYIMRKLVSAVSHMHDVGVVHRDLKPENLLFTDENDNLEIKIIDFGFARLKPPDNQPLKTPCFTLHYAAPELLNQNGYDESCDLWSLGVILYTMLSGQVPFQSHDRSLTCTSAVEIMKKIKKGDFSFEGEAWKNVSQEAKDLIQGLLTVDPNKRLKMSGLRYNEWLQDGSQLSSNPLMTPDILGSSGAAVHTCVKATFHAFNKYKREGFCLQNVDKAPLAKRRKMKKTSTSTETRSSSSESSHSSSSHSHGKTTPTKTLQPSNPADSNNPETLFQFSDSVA
# Sequence of CDC42BPA (human) (Q5VT25 whole entry, looked up): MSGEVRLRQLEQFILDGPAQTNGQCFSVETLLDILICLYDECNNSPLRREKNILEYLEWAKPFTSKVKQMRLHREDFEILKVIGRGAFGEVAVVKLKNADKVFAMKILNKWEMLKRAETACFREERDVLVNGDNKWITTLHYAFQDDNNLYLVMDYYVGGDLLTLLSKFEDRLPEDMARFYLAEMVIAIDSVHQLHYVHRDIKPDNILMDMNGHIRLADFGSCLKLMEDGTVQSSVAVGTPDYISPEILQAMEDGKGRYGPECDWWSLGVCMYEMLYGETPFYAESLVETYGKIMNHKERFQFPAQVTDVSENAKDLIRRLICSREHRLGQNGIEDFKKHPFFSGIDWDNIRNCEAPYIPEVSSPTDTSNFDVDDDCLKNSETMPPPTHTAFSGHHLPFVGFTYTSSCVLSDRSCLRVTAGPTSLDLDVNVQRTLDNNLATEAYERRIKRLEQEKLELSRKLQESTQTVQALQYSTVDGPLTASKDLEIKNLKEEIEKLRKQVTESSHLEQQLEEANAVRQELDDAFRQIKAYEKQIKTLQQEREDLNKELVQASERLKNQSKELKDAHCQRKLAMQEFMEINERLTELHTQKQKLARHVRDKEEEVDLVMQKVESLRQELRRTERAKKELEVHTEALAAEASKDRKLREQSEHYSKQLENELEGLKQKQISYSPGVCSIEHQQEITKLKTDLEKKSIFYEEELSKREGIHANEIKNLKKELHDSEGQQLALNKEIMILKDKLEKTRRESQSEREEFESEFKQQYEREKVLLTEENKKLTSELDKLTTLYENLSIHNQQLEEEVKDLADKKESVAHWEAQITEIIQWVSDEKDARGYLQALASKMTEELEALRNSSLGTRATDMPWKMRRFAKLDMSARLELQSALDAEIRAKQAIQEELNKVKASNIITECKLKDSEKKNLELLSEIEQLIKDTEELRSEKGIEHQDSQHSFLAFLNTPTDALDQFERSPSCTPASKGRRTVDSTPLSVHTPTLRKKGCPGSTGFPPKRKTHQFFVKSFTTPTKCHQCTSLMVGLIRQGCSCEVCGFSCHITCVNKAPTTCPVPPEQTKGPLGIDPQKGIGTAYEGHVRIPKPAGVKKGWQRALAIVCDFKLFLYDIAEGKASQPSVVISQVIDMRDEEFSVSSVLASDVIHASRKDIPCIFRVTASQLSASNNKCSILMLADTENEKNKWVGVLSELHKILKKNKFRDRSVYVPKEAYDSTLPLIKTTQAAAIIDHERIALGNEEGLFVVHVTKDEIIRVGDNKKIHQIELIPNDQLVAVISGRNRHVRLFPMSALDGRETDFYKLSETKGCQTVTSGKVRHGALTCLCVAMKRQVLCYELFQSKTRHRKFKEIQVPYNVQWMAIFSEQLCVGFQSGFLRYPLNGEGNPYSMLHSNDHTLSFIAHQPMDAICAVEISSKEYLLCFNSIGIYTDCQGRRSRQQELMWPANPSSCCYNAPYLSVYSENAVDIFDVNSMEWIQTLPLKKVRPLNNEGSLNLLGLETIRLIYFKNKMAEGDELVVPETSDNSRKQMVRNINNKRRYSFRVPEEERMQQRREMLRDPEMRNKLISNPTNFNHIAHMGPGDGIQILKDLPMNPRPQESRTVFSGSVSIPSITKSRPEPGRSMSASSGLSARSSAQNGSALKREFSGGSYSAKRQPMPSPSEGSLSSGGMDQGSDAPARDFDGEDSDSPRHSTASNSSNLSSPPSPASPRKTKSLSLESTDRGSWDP
# Sequence of MAPK4 (human) (P31152 whole entry, looked up): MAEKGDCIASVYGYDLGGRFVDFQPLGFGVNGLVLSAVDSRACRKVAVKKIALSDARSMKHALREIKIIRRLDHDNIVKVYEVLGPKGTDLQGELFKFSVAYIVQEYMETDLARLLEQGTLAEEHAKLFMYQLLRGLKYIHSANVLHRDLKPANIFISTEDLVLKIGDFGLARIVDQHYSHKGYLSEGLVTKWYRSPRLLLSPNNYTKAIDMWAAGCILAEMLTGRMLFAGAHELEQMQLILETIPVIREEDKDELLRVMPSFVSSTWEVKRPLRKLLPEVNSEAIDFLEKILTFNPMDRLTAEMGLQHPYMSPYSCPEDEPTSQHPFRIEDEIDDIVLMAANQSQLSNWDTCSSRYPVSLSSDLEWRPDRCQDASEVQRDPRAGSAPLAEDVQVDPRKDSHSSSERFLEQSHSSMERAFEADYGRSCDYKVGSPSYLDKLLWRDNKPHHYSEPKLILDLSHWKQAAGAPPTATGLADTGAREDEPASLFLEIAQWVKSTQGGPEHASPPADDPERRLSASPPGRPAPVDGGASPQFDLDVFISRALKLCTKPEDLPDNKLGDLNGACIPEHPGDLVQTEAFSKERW
# Sequence of MAP3K4 (human) (Q9Y6R4 whole entry, looked up): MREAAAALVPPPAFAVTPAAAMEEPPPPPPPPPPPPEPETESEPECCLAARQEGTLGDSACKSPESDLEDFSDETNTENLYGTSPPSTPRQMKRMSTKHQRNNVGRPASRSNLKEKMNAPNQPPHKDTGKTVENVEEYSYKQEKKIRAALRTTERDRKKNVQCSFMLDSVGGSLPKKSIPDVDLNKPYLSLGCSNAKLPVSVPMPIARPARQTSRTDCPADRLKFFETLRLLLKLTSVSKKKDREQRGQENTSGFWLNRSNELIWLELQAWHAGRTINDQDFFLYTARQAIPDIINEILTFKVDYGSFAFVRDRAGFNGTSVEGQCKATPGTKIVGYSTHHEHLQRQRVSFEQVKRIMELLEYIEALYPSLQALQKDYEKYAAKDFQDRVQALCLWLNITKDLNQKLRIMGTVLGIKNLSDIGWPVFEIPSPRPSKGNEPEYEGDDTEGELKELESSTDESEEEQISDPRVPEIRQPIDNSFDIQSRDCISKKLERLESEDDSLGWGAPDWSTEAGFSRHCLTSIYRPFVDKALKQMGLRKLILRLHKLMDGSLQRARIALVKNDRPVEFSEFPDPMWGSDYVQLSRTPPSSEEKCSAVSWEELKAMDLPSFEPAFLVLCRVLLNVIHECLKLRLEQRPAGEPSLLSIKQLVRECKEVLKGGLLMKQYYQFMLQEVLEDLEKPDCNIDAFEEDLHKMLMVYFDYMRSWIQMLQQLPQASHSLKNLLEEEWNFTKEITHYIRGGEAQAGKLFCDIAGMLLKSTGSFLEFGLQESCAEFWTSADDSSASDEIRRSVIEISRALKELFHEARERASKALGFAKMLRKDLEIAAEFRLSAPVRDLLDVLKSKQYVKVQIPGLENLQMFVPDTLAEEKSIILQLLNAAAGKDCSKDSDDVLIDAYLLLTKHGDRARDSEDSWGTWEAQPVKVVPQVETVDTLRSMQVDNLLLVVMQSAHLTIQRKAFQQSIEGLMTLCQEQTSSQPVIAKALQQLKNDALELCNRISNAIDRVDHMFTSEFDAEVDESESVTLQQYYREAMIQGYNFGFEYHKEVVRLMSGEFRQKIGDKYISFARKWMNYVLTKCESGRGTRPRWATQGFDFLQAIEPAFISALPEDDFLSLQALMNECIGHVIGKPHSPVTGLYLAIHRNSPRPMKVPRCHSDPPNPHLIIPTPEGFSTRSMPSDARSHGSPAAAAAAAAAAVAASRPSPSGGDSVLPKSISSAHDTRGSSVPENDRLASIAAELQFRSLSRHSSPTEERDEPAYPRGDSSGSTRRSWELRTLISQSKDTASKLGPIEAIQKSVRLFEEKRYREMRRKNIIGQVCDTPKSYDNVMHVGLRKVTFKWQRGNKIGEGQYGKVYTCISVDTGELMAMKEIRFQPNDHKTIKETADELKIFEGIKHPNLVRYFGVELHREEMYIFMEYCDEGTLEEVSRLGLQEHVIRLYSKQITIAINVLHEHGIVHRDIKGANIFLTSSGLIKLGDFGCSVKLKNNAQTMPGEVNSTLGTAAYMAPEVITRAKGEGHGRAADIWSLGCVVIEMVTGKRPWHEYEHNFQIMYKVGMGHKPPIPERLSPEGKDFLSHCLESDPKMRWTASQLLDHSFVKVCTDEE
# Sequence of PHKG1 (human) (Q16816 whole entry, looked up): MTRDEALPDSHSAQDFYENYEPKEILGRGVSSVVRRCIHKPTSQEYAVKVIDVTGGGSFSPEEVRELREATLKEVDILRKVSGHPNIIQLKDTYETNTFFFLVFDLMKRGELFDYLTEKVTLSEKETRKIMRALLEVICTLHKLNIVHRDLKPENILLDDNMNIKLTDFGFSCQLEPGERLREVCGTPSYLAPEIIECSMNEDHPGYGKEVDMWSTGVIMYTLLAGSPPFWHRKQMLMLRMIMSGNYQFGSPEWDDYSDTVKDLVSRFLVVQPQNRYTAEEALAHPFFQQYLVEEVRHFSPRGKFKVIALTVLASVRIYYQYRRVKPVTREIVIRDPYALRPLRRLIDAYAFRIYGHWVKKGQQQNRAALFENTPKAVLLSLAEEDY
smiles,measurement,setting,value
Nc1cc(C(F)(F)F)c(-c2cc(N3CCOCC3)nc(N3CCOCC3)n2)cn1,inhibition of binding,[1],0%
same,inhibition of binding,[2],2%
same,inhibition of binding,[3],3%
same,inhibition of binding,[4],0%
same,inhibition of binding,[5],15%
same,inhibition of binding,[6],11%
same,inhibition of binding,[7],0%
same,inhibition of binding,[8],19%
same,inhibition of binding,[9],0%
same,inhibition of binding,[10],8%
same,inhibition of binding,[11],0%
same,inhibition of binding,[12],0%
same,inhibition of binding,[13],0%
same,inhibition of binding,[14],0%
same,inhibition of binding,[15],16%
same,inhibition of binding,[16],50%
same,inhibition of binding,[17],8%
same,inhibition of binding,[18],0%
same,inhibition of binding,[19],0%
same,inhibition of binding,[20],4%
same,inhibition of binding,[21],0%
same,inhibition of binding,[22],0%
same,inhibition of binding,[23],0%
same,inhibition of binding,[24],17%
same,inhibition of binding,[25],0%
same,inhibition of binding,[26],0%
same,inhibition of binding,[27],0%
same,inhibition of binding,[28],1%
same,inhibition of binding,[29],10%
same,inhibition of binding,[30],5%
same,inhibition of binding,[31],0%
same,inhibition of binding,[32],0%
same,inhibition of binding,[33],0%
same,inhibition of binding,[34],0%
same,inhibition of binding,[35],4%
same,inhibition of binding,[36],0%
same,inhibition of binding,[37],0%
same,inhibition of binding,[38],13%
same,inhibition of binding,[39],0%
same,inhibition of binding,[40],0%

# Reference: the kinase profiling compilation of Christmann-Franck et al. (2016)
